Source: patent US20070219159A1, “CYCLODEXTRIN COMPOSITIONS AND METHODS OF TREATING VIRAL INFECTIONS” (priority 2002, published 2007)
Like-named read-outs stand apart in the source and are kept apart here.

Assays:
[1] = system: Flu A
[2] = system: vaccinia Western Reserve strain (WR); type: cell-based
[3] = system: Punta Toro
[4] = system: Pichinde
[5] = system: Vero cells; details: 48 hours exposure; extrapolated from cell killing graph (FIG. 5)
[6] = system: VEE
[7] = system: HCV; assay: In vitro anti-HCV assay in HCV RNA-replicating cell line AVA5; type: cell-based; details: HCV
Method: (§1) The antiviral activity of test compounds were assayed in the stably HCV RNA-replicating cell line. AVA5, derived by transfection of the human hepatoblastoma cell line, Huh^7 (Blight et al., 2000). Experimental drugs were added to dividing cultures once daily for three days. Media was changed with each addition of compound. Cultures generally started the assays at 50% confluence and reached confluence during the last day of treatment. HCV RNA and cellular β-actin RNA levels were assessed 24 hours after the last dose of compound using dot blot hybridization. Assays were conducted using a single dose of test compound (in triplicate cultures).
(§2) Both HCV and β-actin RNA levels in the treated cultures were expressed as a percentage of the mean levels of RNA detected in untreated cultures. β-actin RNA levels were used both as a measure of toxicity, and to normalize the amount of cellular RNA in each sample. A level of 30% or less HCV RNA (relative to control cultures) was considered to be a positive antiviral effect, and a level of 50% or less β-actin RNA (relative to control cultures) is considered to be a cytotoxic effect.
(§3) Dividing cultures of AVAB cells were treated once daily for three days (media was changed with each addition of compound) with 4 concentrations of test compounds (3 cultures per concentration). A total of 6 untreated control cultures, and triplicate cultures treated with 10, 3, and 1 IU/ml α-interferon (active antiviral with no cytotoxicity), and 100, 10, and 1 μM ribavir ([…]) served as controls. HCV RNA and cellular β-actin FNA levels were assessed 24 hours after the last dose of compound using dot blot hybridization. β-actin RNA levels were used to normalize the amount of cellular RNA in each sample.
(§4) Toxicity analyses were performed on separate plates from those used for the antiviral assays. Cells for the toxicity analyses were cultured and treated with test compounds with the same schedule and under identical culture conditions used for the antiviral evaluations. Each compound was tested at 4 concentrations, each in triplicate cultures. Uptake of neutral red dye was used to determine the relative level of toxicity 24 hours following the last treatment. The absorbance of internalized dye at […] (A510) was used for the quantitative analysis. Values in test cultures were compared to 9 cultures of untreated cells maintained on the same plate as the test cultures.
(§5) Assays similar to those described above were conducted.

[8] = system: MV
[9] = system: West Nile; assay: In vitro antiviral screening (Table 1), West Nile
[10] = In vitro anti-HCV assay in HCV RNA-replicating cell line AVA5; type: cell-based; details: human, AVA5 cells (HCV RNA-replicating Huh7 line); toxicity control, no antiviral activity; read-out: approximate CC90
Method: as §1, §2, §3, §4, §5

[11] = system: EBV
[12] = system: Cowpox
[13] = system: VZV
[14] = system: MCMV
[15] = system: PIV
[16] = system: Ad
[17] = system: HHV-6
[18] = system: Resp syncytial
[19] = system: Measles
[20] = system: RSV
[21] = system: HSV-1 strain KOS1.1; assay: CPE reduction assay in Vero cells, HSV-1; type: cell-based; details: HSV-1; final concentrations up to 8 mg/ml
[22] = system: Rhino
[23] = system: HRV
[24] = system: HSV-2; details: in general 1000-fold less drug than Examples 1-6 and 10
[25] = system: Vaccinia
[26] = system: HSV-2 strain MS; assay: CPE reduction assay in Vero cells, HSV-2; type: cell-based; details: HSV-2; final concentrations up to 8 mg/ml
[27] = system: Flu B
[28] = system: Yellow fever
[29] = system: HHV-7
[30] = system: HCMV
[31] = system: HSV-1; details: in general 1000-fold less drug than Examples 1-6 and 10
[32] = HSV-infected cells; cited from earlier work

| Molecule | SI = CC50/EC50 [4] | SI = CC50/EC50 [6] | S.I. for HCV [7] | SI = CC50/EC50 [8] | SI = CC50/EC50 [9] | SI = CC50/EC50 [1] | SI = CC50/EC50 [11] | SI = CC50/EC50 [12] | SI = CC50/EC50 [13] | SI = CC50/EC50 [14] | SI = CC50/EC50 [15] | SI = CC50/EC50 [16] | SI = CC50/EC50 [17] | SI = CC50/EC50 [18] | SI = CC50/EC50 [19] | SI = CC50/EC50 [3] | SI = CC50/EC50 [20] | SI = CC50/EC50 [22] | SI = CC50/EC50 [23] | SI = CC50/EC50 [24] | other results |
| --- | --- | --- | --- | --- | --- | --- | --- | --- | --- | --- | --- | --- | --- | --- | --- | --- | --- | --- | --- | --- | --- |
| methyl-β-cyclodextrin [MBCD] | 0 | 0 | 1.69 | 0 | 0 (?) | – | – | – | – | – | – | – | – | – | – | – | – | – | – | – | SI = CC50/EC50 ([1]; Flu A): 0; anti-vaccinia virus activity (cytopathic effect versus untreated wells) ([2]; MBCD 4 to 4.5 mg/ml, β-CD 7.2 mg/ml, pre- and post-infection, 48 hours): much fewer and smaller areas of cytopathic effect; concentration at which anti-vaccinia virus activity was observed ([2]; flat portion of the cell killing curve): < 4.5 mg/mL; SI = CC50/EC50 ([3]; Punta Toro): 0; CC50 at 48 hours for Vero cells [5]: approximately 5.5 mg/ml |
| NC(=O)c1ncn([C@@H]2O[C@H](CO)[C@@H](O)[C@H]2O)n1 [ribavirin, reference compound] | – | – | – | – | – | – | – | – | – | – | – | – | – | – | – | – | – | – | – | – | CC90 at 3 days [10]: ~100 µM |
| OC[C@H]1O[C@@H]2O[C@H]3[C@H](O)[C@@H](O)[C@@H](O[C@H]4[C@H](O)[C@@H](O)[C@@H](O[C@H]5[C@H](O)[C@@H](O)[C@@H](O[C@H]6[C@H](O)[C@@H](O)[C@@H](O[C@H]7[C@H](O)[C@@H](O)[C@@H](O[C@H]1[C@H](O)[C@H]2O)O[C@@H]7CO)O[C@@H]6CO)O[C@@H]5CO)O[C@@H]4CO)O[C@@H]3CO [ACD, α-cyclodextrin] | 0 | 0 | 0.72 | 0 | 0 | 0 | >1.5 | 0 | 0 | 0 | 0 | 0 | 0 | 0 | 0 | 0 | 0 | 0 | 0 | 0 | antiviral activity in infected Vero cells [21]: no significant antiviral activity; SI = CC50/EC50 [25]: 0; antiviral activity in infected Vero cells [26]: no significant antiviral activity; SI = CC50/EC50 [27]: 0; SI = CC50/EC50 [28]: 0; SI = CC50/EC50 [29]: 0; SI = CC50/EC50 [30]: 0; SI = CC50/EC50 [31]: 0 |
| OC[C@H]1O[C@@H]2O[C@H]3[C@H](O)[C@@H](O)[C@@H](O[C@H]4[C@H](O)[C@@H](O)[C@@H](O[C@H]5[C@H](O)[C@@H](O)[C@@H](O[C@H]6[C@H](O)[C@@H](O)[C@@H](O[C@H]7[C@H](O)[C@@H](O)[C@@H](O[C@H]8[C@H](O)[C@@H](O)[C@@H](O[C@H]9[C@H](O)[C@@H](O)[C@@H](O[C@H]1[C@H](O)[C@H]2O)O[C@@H]9CO)O[C@@H]8CO)O[C@@H]7CO)O[C@@H]6CO)O[C@@H]5CO)O[C@@H]4CO)O[C@@H]3CO [GCD, γ-cyclodextrin] | 0 | 0 | 1.04 | 0 | 0 | 0 | 0 | 0 | 0 | 0 | 0 | 0 | 0 | 0 | 0 | 0 | 0 | 0 | 0 | 0 | SI = CC50/EC50 [25]: 0; SI = CC50/EC50 [27]: 0; SI = CC50/EC50 [28]: 0; SI = CC50/EC50 [29]: 0; SI = CC50/EC50 [30]: 0; SI = CC50/EC50 [31]: 0 |
| penciclovir triphosphate | – | – | – | – | – | – | – | – | – | – | – | – | – | – | – | – | – | – | – | – | intracellular half life [32]: 12 h |
